Experiment [1] concerns Puccinia recondita. Kind of experiment: Protective activity against Puccinia recondita on wheat (brown rust of wheat) (Puccrt P1). Conditions: 250 ppm active compound, sprayed to runoff on potted wheat seedlings, inoculated next day; untreated plants 90% infected. The class given is in vivo. How it is done:
The active compounds were prepared separately or jointly as a stock solution comprising 25 mg of active compound which was made up to 10 ml using a mixture of acetone and/or DMSO and the emulsifier Wettol EM 31 (wetting agent having emulsifying and dispersing action based on ethoxylated alkylphenols) in a volume ratio of solvent/emulsifier of 99:1. The mixture was then made up to 100 ml with water. This stock solution was diluted with the solvent/emulsifier/water mixture described to give the concentration of active compound stated below. Leaves of potted wheat seedlings were sprayed to runoff point with an aqueous suspension having the active compound concentration stated below. The next day, the treated plants were inoculated with a spore suspension of brown rust of wheat (Puccinia recondita). The plants were then placed in a chamber with high atmospheric humidity (90 to 95%) at 20 to 22° C. for 24 hours. During this time, the spores germinated and the germ tubes penetrated into the leaf tissue. The next day, the test plants were returned to the greenhouse and cultivated at temperatures between 20 and 22° C. and at 65 to 70% relative atmospheric humidity for a further 7 days. The extent of the rust fungus development on the leaves was then determined visually.

The test system of experiment [2] is Pyrenophora teres. Briefly: Activity against net blotch of barley caused by Pyrenophora teres, 1 day protective application (Pyrnte P1). The class given is in vivo, Pyrenophora [syn. Drechslera] teres on barley. The following applies: 250 ppm active compound, sprayed to runoff on potted barley seedlings, inoculated after 24 hours, assessed after 6 days; untreated plants 90% infected. How it is done: The active compounds were prepared separately or jointly as a stock solution comprising 25 mg of active compound which was made up to 10 ml using a mixture of acetone and/or DMSO and the emulsifier Wettol EM 31 (wetting agent having emulsifying and dispersing action based on ethoxylated alkylphenols) in a volume ratio of solvent/emulsifier of 99:1. The mixture was then made up to 100 ml with water. This stock solution was diluted with the solvent/emulsifier/water mixture described to give the concentration of active compound stated below. Leaves of potted barley seedlings were sprayed to runoff point with an aqueous suspension having the active compound concentration stated below. 24 hours after the spray coating had dried on, the test plants were inoculated with an aqueous spore suspension of Pyrenophora [syn. Drechslera] teres, the net blotch pathogen. The test plants were then placed in a greenhouse at temperatures between 20 and 24° C. and at 95 to 100% relative atmospheric humidity. After 6 days, the extent of the development of the disease was determined visually in % infection of the entire leaf area.

Molecules are shown by their SMILES.

Consider `Fc1ccc([C@@]2(Cn3cncn3)O[C@@H]2c2cccnc2Cl)cc1` (racemic) [3-{(2RS,3SR)-3-[(1H-1,2,4-triazol-1-yl)methyl]-3-[4-fluorophenyl]oxiran-2-yl}-2-chloropyridine], for which, in experiment [1], the “infection (extent of rust fungus development on the leaves, determined visually)” value is reported as “not more than 10%”. Further, in experiment [2], the “infection (% infection of the entire leaf area, determined visually)” value is listed as “not more than 20%”.

For the origin of these results see patent US20090203700A1, “Azolylmethyloxiranes, Their Use for Controlling Phytopathogenic Fungi, and Compositions Comprising Them” (BASF SE, priority 2006, published 2009).
